Each compound was assayed against T1, B-Raf kinase (Homo sapiens, UniProt P15056) (assay: Biochemical Assay for B-Raf (coupled pyruvate kinase/lactate dehydrogenase assay)). Settings: Table 4; read-out: BRAF IC50.
T1 construct: GST (N); purchased Sigma
T1 sequence (P15056 416-766): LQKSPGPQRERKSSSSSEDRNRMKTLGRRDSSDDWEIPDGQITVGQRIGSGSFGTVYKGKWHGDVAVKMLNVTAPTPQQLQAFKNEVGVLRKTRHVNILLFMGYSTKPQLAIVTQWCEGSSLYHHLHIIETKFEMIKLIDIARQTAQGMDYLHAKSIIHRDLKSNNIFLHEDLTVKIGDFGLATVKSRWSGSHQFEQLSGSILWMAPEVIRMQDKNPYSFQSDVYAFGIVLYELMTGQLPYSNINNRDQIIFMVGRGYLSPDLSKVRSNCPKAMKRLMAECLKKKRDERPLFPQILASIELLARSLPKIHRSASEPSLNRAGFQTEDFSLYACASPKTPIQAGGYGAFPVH
Work on `Cc1cc(F)c(NC(=O)NCCC(C)(C)C)cc1-c1cc(OCCO)nc(N2CCOCC2)c1` [reference compound] yielded an IC50 of under 0.1 µM.
In the case of `CC(=O)Nc1cc(-c2cc(-c3cc(NC(=O)NCCC4(C)CC4)c(F)cc3C)ccn2)ccn1` [reference compound], the IC50 is reported as under 0.1 µM.
`Cc1ccc(NC(=O)Nc2cn(C)nc2C(F)(F)F)cc1-c1cc(OCCO)nc(N2CCOCC2)c1` [reference compound] was tested, and the IC50 was 1 to 10 µM.
For `Cc1ccc(NC(=O)Nc2cnn(CC(F)(F)F)c2)cc1-c1cc(OCCO)nc(N2CCOCC2)c1` [reference compound], the IC50 was 1 to 10 µM.

Each compound was assayed against T2, C-Raf kinase (Homo sapiens, UniProt P04049, Y340D/Y341D) (assay: Biochemical Assay for C-Raf (coupled pyruvate kinase/lactate dehydrogenase assay)). Settings: Table 4; read-out: CRAF IC50.
T2 construct: C-Raf residues 306-end; Y340D, Y341D with N-; GST (N); purchased Eurofins
T2 sequence (P04049 307-648 Y340D/Y341D): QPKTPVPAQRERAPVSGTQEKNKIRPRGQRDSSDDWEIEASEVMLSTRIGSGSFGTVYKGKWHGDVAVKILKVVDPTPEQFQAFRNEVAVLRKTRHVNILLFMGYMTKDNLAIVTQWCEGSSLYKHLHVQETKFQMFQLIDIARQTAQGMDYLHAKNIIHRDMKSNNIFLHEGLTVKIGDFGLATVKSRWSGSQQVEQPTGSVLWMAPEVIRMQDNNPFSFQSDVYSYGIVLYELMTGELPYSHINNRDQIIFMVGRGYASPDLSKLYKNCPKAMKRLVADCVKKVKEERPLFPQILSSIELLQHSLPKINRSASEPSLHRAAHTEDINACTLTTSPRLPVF
`Cc1cc(F)c(NC(=O)NCCC(C)(C)C)cc1-c1cc(OCCO)nc(N2CCOCC2)c1` [reference compound] gave an IC50 of under 0.1 µM.
`CC(=O)Nc1cc(-c2cc(-c3cc(NC(=O)NCCC4(C)CC4)c(F)cc3C)ccn2)ccn1` [reference compound] showed an IC50 of under 0.1 µM.
Compound `Cc1ccc(NC(=O)Nc2cn(C)nc2C(F)(F)F)cc1-c1cc(OCCO)nc(N2CCOCC2)c1` [reference compound] has an IC50 of 1 to 10 µM.

The compounds below were run on MiaPaca-2 cells (assay: MiaPaca-2 Cell Proliferation Assay). Settings: Homo sapiens, MIA PaCa-2; Table 4; read-out: MiaPaca-2 IC50.
Type: cell-based
Description: MiaPaca-2 cells (catalog #CRL-1420) are obtained from the American Type Culture Collect (ATTC, Manassas, VA). Briefly, cells were grown in DMEM supplemented with 10% characterized fetal bovine serum (Invitrogen, Carlsbad, CA), 2.5% New Zealand sourced horse serum and 1% Penicillin/Streptomycin/L-Glutamine at 37° C., 5% CO2, and 95% humidity. Cells are expanded until reaching 70-95% confluency at which point they are sub-cultured or harvested for assay use. For assays completed in 96-well plates, a serial dilution of test compound is dispensed into a 96-well black clear bottom plate in triplicate. Three thousand cells are added per well in 200 μL complete growth medium in the 96-well plate. Plates are incubated for 67 to 72 h at 37° C., 5% CO2, and 95% humidity. At the end of the incubation, 40 μL of a […] solution of resazurin (Sigma, St. Louis, MO) in PBS is added to each well of the plate and plates are incubated for an additional 5 to 6 hours at 37° C., 5% CO2, and 95% humidity. For 384-well assays, a threefold, 8-point serial dilution of compound was spotted column wise into a 384 well black, clear bottom, tissue culture treated plate using the Beckman Coulter Echo 650. Likewise, a threefold, 8-point serial dilution of cobimetinib was spotted row wise into the 384 well black, clear bottom plate containing compound. DMSO concentration was constant across all wells at 0.4%. Seven hundred fifty cells are added per well in 50 μL complete growth medium in each 384-well plate. Plates are incubated for 67 to 72 h at 37° C., 5% CO2, and 95% humidity. At the end of the incubation, 10 μL of a 440 μM solution of resazurin (Sigma, St. Louis, MO) in PBS is added to each well of the plate and plates are incubated for an additional 4 to 6 h at 37° C., 5% CO2, and 95% humidity. Plates are read on a Synergy2 or equivalent reader (Biotek, Winooski VT) using an excitation of 540 nm and an emission of 600 nm. Data is analyzed using Prism software (Graphpad, San Diego, CA) to calculate IC50 values.
`Cc1cc(F)c(NC(=O)NCCC(C)(C)C)cc1-c1cc(OCCO)nc(N2CCOCC2)c1` [reference compound] showed an IC50 of 1 to 10 µM.
`CC(=O)Nc1cc(-c2cc(-c3cc(NC(=O)NCCC4(C)CC4)c(F)cc3C)ccn2)ccn1` [reference compound] was tested, and the IC50 was 1 to 10 µM.
For `Cc1ccc(NC(=O)NC2CCCCCC2)cc1-c1cc(OCCO)nc(N2CCOCC2)c1` [reference compound], the IC50 was 1 to 10 µM.

The compounds below were run on HCT-116 cells (assay: HCT-116 Cell Proliferation Assay). Settings: Homo sapiens, HCT-116; Table 4; read-out: HCT-116 IC50.
Type: cell-based
Description: HCT-116 cells (catalog #CCL-247) are obtained from the American Type Culture Collect (ATCC, Manassas, VA). Briefly, cells are grown in McCoy's 5A supplemented with 10% characterized fetal bovine serum (Invitrogen, Carlsbad, CA) and 1% Penicillin/Streptomycin/L-Glutamine at 37° C., 5% CO2, and 95% humidity. Cells are expanded until reaching 70-95% confluency at which point they are sub-cultured or harvested for assay use. A serial dilution of test compound is dispensed into a 384-well black clear bottom plate in triplicate. 375 cells are added per well in 50 μL complete growth medium in the 384-well plate. Plates are incubated for 67 to 72 h at 37° C., 5% CO2, and 95% humidity. At the end of the incubation, 40 μL of a […] solution of resazurin (Sigma, St. Louis, MO) in PBS is added to each well of the plate and plates are incubated for an additional 4 to 5 hours at 37° C., 5% CO2, and 95% humidity. Plates are read on a Synergy2 or equivalent reader (Biotek, Winooski, VT) using an excitation of 540 nm and an emission of 600 nm. Data is analyzed using Prism software (Graphpad, San Diego, CA) to calculate IC50 values.
In the case of `Cc1cc(F)c(NC(=O)NCCC(C)(C)C)cc1-c1cc(OCCO)nc(N2CCOCC2)c1` [reference compound], the IC50 is reported as 1 to 10 µM.
With `CC(=O)Nc1cc(-c2cc(-c3cc(NC(=O)NCCC4(C)CC4)c(F)cc3C)ccn2)ccn1` [reference compound] the IC50 was 0.5 to 1 µM.
`Cc1ccc(NC(=O)NC2CCCCCC2)cc1-c1cc(OCCO)nc(N2CCOCC2)c1` [reference compound] was tested, and the IC50 was 1 to 10 µM.
With `Cc1ccc(NC(=O)Nc2cn(C)nc2C(F)(F)F)cc1-c1cc(OCCO)nc(N2CCOCC2)c1` [reference compound] the IC50 was 1 to 10 µM.
`Cc1ccc(NC(=O)Nc2cnn(CC(F)(F)F)c2)cc1-c1cc(OCCO)nc(N2CCOCC2)c1` [reference compound] showed an IC50 of 1 to 10 µM.

These compounds were tested on HPAF-II cells (assay: HPAF-II Cell Proliferation Assay). Settings: Homo sapiens, HPAF-II; Table 4; read-out: HPAF-II IC50.
Type: cell-based
Description: HPAF-II cells (catalog #CRL-1997) are obtained from the American Type Culture Collect (ATCC, Manassas, VA). Briefly, cells are grown in Minimum Essential Media supplemented with 10% characterized fetal bovine serum (Invitrogen, Carlsbad, CA) and 1% Penicillin/Streptomycin/L-Glutamine at 37° C., 5% CO2, and 95% humidity. Cells are expanded until reaching 70-95% confluency at which point they are sub-cultured or harvested for assay use. A serial dilution of test compound is dispensed into a 384-well black clear bottom plate in triplicate. 750 cells are added per well in 50 μL complete growth medium in the 384-well plate. Plates are incubated for 115 to 120 h at 37° C., 5% CO2, and 95% humidity. At the end of the incubation, 40 μL of a […] solution of resazurin (Sigma, St. Louis, MO) in PBS is added to each well of the plate and plates are incubated for an additional 18 to 24 h at 37° C., 5% CO2, and 95% humidity. Plates are read on a Synergy2 or equivalent reader (Biotek, Winooski, VT) using an excitation of 540 nm and an emission of 600 nm. Data is analyzed using Prism software (Graphpad, San Diego, CA) to calculate IC50 values.
`Cc1cc(F)c(NC(=O)NCCC(C)(C)C)cc1-c1cc(OCCO)nc(N2CCOCC2)c1` [reference compound] was tested, and the IC50 was 1 to 10 µM.
With `CC(=O)Nc1cc(-c2cc(-c3cc(NC(=O)NCCC4(C)CC4)c(F)cc3C)ccn2)ccn1` [reference compound] the IC50 was 0.5 to 1 µM.
`Cc1ccc(NC(=O)NC2CCCCCC2)cc1-c1cc(OCCO)nc(N2CCOCC2)c1` [reference compound] gave an IC50 of 1 to 10 µM.
With `Cc1ccc(NC(=O)Nc2cn(C)nc2C(F)(F)F)cc1-c1cc(OCCO)nc(N2CCOCC2)c1` [reference compound] the IC50 was 1 to 10 µM.
For `Cc1ccc(NC(=O)Nc2cnn(CC(F)(F)F)c2)cc1-c1cc(OCCO)nc(N2CCOCC2)c1` [reference compound], the IC50 was 1 to 10 µM.

These compounds were tested on tubulin (assay: Cellular Tubulin Polymerization Assay (HCT-116 cells)). Settings: Table 4, HCT-116 cells; read-out: Tubulin Cellular IC50.
Type: cell-based
`Cc1cc(F)c(NC(=O)NCCC(C)(C)C)cc1-c1cc(OCCO)nc(N2CCOCC2)c1` [reference compound] showed an IC50 of 1 to 10 µM.
With `CC(=O)Nc1cc(-c2cc(-c3cc(NC(=O)NCCC4(C)CC4)c(F)cc3C)ccn2)ccn1` [reference compound] the IC50 was 1 to 10 µM.

— patent US20260176279A1, “DUAL RAF AND TUBULIN INHIBITORS AND METHODS OF USE THEREOF” (Deciphera Pharmaceuticals, LLC, priority 2023, published 2026)
